Read-outs that look alike come from different tables or passages of the source.
What was measured:
[1] = system: P. aeruginosa IMI-2016; test: MIC of antibiotics by serial dilution with or without FCCD; assay type: cell-based
Protocol: The study is carried out on P. aeruginosa strains given in the previous examples by in vitro serial dilution method using FCCD. Evaluate the decrease in resistance of Pseudomonas aeruginosa strains to amikacin and polymyxin. Prepare two rows of plates with Müller-Hinton nutrient medium: the first row contains various concentrations of the studied antibiotic (amikacin and polymyxin)—31, 62, 125, 250, 500 μg/ml of medium (double dilution). At the same time, prepare the same row of plates, but add FCCD additionally into the medium at a concentration of (0.0001-0.001) %. Inoculate 0.05 ml (drop) of each test strain on the plates from a bacterial suspension containing 10^8 […] according to the optic turbidity standard of 10 units. Müller-Hinton medium without antibiotic and Müller-Hinton medium containing 0.0001% of FCCD without antibiotic are used as controls. Inoculations are incubated at 37° C. for 48 hours. The results are considered by the value of MIC (minimum inhibitory concentration) with the obligatory growth of bacteria on control plates (see table 12).

[2] = system: K. pneumoniae IMI-2016; test: as above; assay type: cell-based
[3] = system: A. baumannii IMI-2016; test: as above; assay type: cell-based
[4] = system: P. Aeruginosa strains; test: Antibiotic disc diffusion on Müller-Hinton agar with or without FCCD; assay type: cell-based, Pseudomonas aeruginosa; conditions: for sensitivity of bacteria to antibiotic disc (in words): discs added with additional passages, FCCD medium
Protocol: The studies are carried out in vitro by diffusion method on P. Aeruginosa strains indicated in previous experiments. Two rows of plates containing Müller-Hinton agar were prepared in parallel, with a 0.01-0.005% FCCD solution added to the second-row plates. After that, bacteria of the studied strains from a suspension containing 10^8 […] are inoculated on the surface of the agar. To do this, prepare a bacterial suspension corresponding to a concentration of 10^9 […] according to the optic turbidity standard of 10 units diluted with physiological salt solution 10 times (up to 10^8 μl/m1). […] Inoculations on plates with FCCD-free medium are used as controls, as well as media on which discs are not applied. Inoculations are incubated for 48 hours at 37° C. in one passage, then re-inoculation is carried out under similar conditions for the following passages. A total of 4 passages were carried out with controls. The results are taken into account by the diameter of the bacteria inhibition zones. On FCCD-free medium, there are no inhibition zones (an indicator of antibiotic resistance of bacteria), whereas on a medium containing 0.005-0.01% FCCD, a zone of bacterial growth inhibition from 25 to 40 mm in diameter forms around discs (appearance of sensitivity to antibiotic).
Growth inhibition zones were not observed for antibiotics Pseudomonas aeruginosa has genetically determined (initial) antibiotic resistance.

[5] = Pseudomonas aeruginosa, IMI2016, Control (without FCCD), read-out: MIC
[6] = Pseudomonas aeruginosa, IMI2016, with FCCD 0.001 % (first FCCD line), read-out: MIC
[7] = Pseudomonas aeruginosa, IMI2016, with FCCD 0.001 % (second FCCD line), read-out: MIC
[8] = Klebsiella pneumoniae, IMI2016, Control (without FCCD), read-out: MIC
[9] = Klebsiella pneumoniae, IMI2016, with FCCD 0,001 % (first FCCD line), read-out: MIC
[10] = Klebsiella pneumoniae, IMI2016, with FCCD 0,001 % (second FCCD line), read-out: MIC
[11] = Acinetobacter baumannii, IMI2016, Control (without FCCD), read-out: MIC
[12] = Acinetobacter baumannii, IMI2016, with FCCD 0.001 % (first FCCD line), read-out: MIC
[13] = Acinetobacter baumannii, IMI2016, with FCCD 0.001 % (second FCCD line), read-out: MIC
[14] = with FCCD 0.001 % (first FCCD line)
[15] = with FCCD 0.001 % (second FCCD line)
[16] = with FCCD 0,001 % (first FCCD line)
[17] = with FCCD 0,001 % (second FCCD line)

| Compound | MIC [1, 5] [µg/mL] | MIC [1, 6] [µg/mL] | MIC [1, 7] [µg/mL] | MIC [2, 8] [µg/mL] | MIC [2, 9] [µg/mL] | MIC [2, 10] [µg/mL] | MIC [3, 11] [µg/mL] | MIC [3, 12] [µg/mL] | MIC [3, 13] [µg/mL] | other results |
| --- | --- | --- | --- | --- | --- | --- | --- | --- | --- | --- |
| NCC[C@H](O)C(=O)N[C@@H]1C[C@H](N)[C@@H](O[C@H]2O[C@H](CN)[C@@H](O)[C@H](O)[C@H]2O)[C@H](O)[C@H]1O[C@H]1O[C@H](CO)[C@@H](O)[C@H](N)[C@H]1O [Amikacin] | > 500 | 15 | 125 | > 500 | 31 | 62 | > 500 | 15 | 125 | increase of sensitivity to antibiotic under FCCD ([1]; Pseudomonas aeruginosa): 33 times; zone of bacterial growth inhibition around disc (in words) ([4]; FCCD-free medium): no zone of bacterial growth inhibition; zone of bacterial growth inhibition around disc (in words) ([4]; medium with (0.005-0.01)% FCCD): zone of bacterial growth inhibition appears |
| CO/N=C(\C(=O)N[C@@H]1C(=O)N2C(C(=O)O)=C(CSc3nc(=O)c(=O)[nH]n3C)CS[C@H]12)c1csc(N)n1 [Ceftriaxone] | > 500 | 250 | 500 | > 500 | 125 | 250 | > 500 | 250 | 125 | – |
| C[C@@H](O)[C@H]1C(=O)N2C(C(=O)O)=C(SCCN=CN)C[C@H]12 [Imipinem] | – | – | – | – | – | – | – | – | – | MIC ([1]; Control (without FCCD)): >500 µg/mL; MIC [1, 14]: 250 µg/mL; MIC [1, 15]: 125 µg/mL; MIC ([2]; Control (without FCCD)): >500 µg/mL; MIC [2, 16]: 250 µg/mL; MIC [2, 17]: 125 µg/mL; MIC ([3]; Control (without FCCD)): >500 µg/mL; MIC [3, 14]: 250 µg/mL; MIC [3, 15]: 31 µg/mL |
| C[C@H]1COc2c(N3CCN(C)CC3)c(F)cc3c(=O)c(C(=O)O)cn1c23 [Levofloxacin] | > 500 | 125 | 250 | > 500 | 125 | 250 | > 500 | 125 | 62 | – |
| CC1(C)S[C@@H]2[C@H](NC(=O)[C@H](N)c3ccc(O)cc3)C(=O)N2[C@H]1C(=O)O [amoxicillin] | – | – | – | – | – | – | – | – | – | sensitivity of bacteria to antibiotic disc (in words) [4]: did not appear sensitive |
| Cc1nnc(SCC2=C(C(=O)O)N3C(=O)[C@@H](NC(=O)Cn4cnnn4)[C@H]3SC2)s1 [cefazolin] | – | – | – | – | – | – | – | – | – | sensitivity of bacteria to antibiotic disc (in words) [4]: did not appear sensitive |
| Polymyxin | – | – | – | – | – | – | – | – | – | MIC ([1]; Control (without FCCD)): 250 µg/mL; increase of sensitivity to antibiotic under FCCD ([1]; Pseudomonas aeruginosa): 16 times; MIC [1, 14]: 31 µg/mL; MIC [1, 15]: 125 µg/mL; MIC ([2]; Control (without FCCD)): >500 µg/mL; MIC [2, 16]: 62 µg/mL; MIC [2, 17]: 125 µg/mL; MIC ([3]; Control (without FCCD)): >500 µg/mL; MIC [3, 14]: 31 µg/mL; MIC [3, 15]: 62 µg/mL; zone of bacterial growth inhibition around disc (in words) ([4]; FCCD-free medium): no zone of bacterial growth inhibition; zone of bacterial growth inhibition around disc (in words) ([4]; medium with (0.005-0.01)% FCCD): zone of bacterial growth inhibition appears |

From patent US11191767B2, “Pharmaceutical composition for stimulating stem cell division and suppressing bacterial virulence” (priority 2017, dated 2021)
